In patent publication US10213516B2, “Labelled carboxylic acids and their uses in molecular imaging” (Imperial Innovations Limited, priority 2013, dated 2019):
Entries after “also recorded” stand apart in the source; their conditions may differ. Blank lines part the entries; values can stand above or below the compound they belong to.

Assays:
[1] = system: tumour; details: cited from earlier work
[2] = system: U87 glioma human xenografts; test: Biodistribution in U87 human glioblastoma-bearing BALB/c nude mice; assay type: in vivo; details: for Tumour/brain ratio: U87 glioma, 60 min post injection; for Tumour uptake: U87 xenografts, 60 min post-radiotracer injection
Experimental: (§1) All animal experiments were performed by licensed investigators in accordance with the United Kingdom Home Office Guidance on the Operation of the Animal (Scientific Procedures) Act 1986 and within the published guidelines for the welfare and use of animals in cancer research.^22 EMT6 tumour cells (2×10^6; 100 μL PBS) were injected subcutaneously on the back of female BALB/c mice (aged 6-8 weeks; Charles River) and grown to ˜150 mm^3. U87 tumours were grown following subcutaneous injection of 5×10^6 cells (100 μL PBS) on the back of female BALB/c nude mice (aged 6-8 weeks; Charles River), with BT474 tumours induced following injection of 5×10^6 cells in matrigel (BD Biosciences; 1:1 ratio PBS-to-matrigel; 100 μL total). Tumour dimensions were measured periodically using a caliper and tumour volumes were calculated by the equation: volume=(π/6)×a×b×c, where a, b, and c represent three orthogonal axes of the tumour. Inflammation was performed in an aseptic inflammation model as previously described.^23
(§2) [^18F]FDMP (˜3.7 MBq) was injected via the tail vein of anaesthetized EMT6 tumour-bearing BALB/c mice. The mice were maintained under anesthesia and sacrificed by exsanguination via cardiac puncture at 2, 15, 30, 60, 120 or 180 min post radiotracer injection and tissues harvested. Biodistribution studies with BT474 and U87 tumour-bearing nude mice were performed 60 min post [^18F]FDMP injection. Tissue radioactivity was determined on a gamma counter (Cobra II Auto-Gamma counter, Packard Biosciences Co.) and decay corrected. 10 μL standards from a 1:100 dilution of the stock activity were also counted for data normalization. Plasma was obtained from terminal blood samples following centrifugation (14000 g, 5 min). Data were expressed as percent injected dose per gram of tissue (% ID/g).

[3] = system: EMT6 tumours; test: PET imaging of EMT6 tumour-bearing mice; assay type: in vivo; details: 60 min
Experimental: All animal experiments were performed by licensed investigators in accordance with the United Kingdom Home Office Guidance on the Operation of the Animal (Scientific Procedures) Act 1986 and within the published guidelines for the welfare and use of animals in cancer research.^22 EMT6 tumour cells (2×10^6; 100 μL PBS) were injected subcutaneously on the back of female BALB/c mice (aged 6-8 weeks; Charles River) and grown to ˜150 mm^3. […] Tumour dimensions were measured periodically using a caliper and tumour volumes were calculated by the equation: volume=(π/6)×a×b×c, where a, b, and c represent three orthogonal axes of the tumour. […]
[^18F]FDMP imaging scans were carried out on a GENISYS^4 small animal PET scanner (Sofie Biosciences), following a bolus i.v. injection of ˜1.85 MBq of the radiotracer into tumour-bearing mice. […] Tumour radioactivity were normalized to that of the whole body to obtain the normalized uptake value (NUV) to permit comparison of data obtained using the two scanners.
Dynamic [^18F]FDMP imaging scans were carried outa dedicated small animal PET scanner (Siemens Inveon PET module, Siemens Medical Solutions USA, Inc., Malvern, Pa., USA) following a bolus i.v. injection of ˜3.7 MBq of the radiotracer into tumour-bearing mice. […] The count densities were averaged for all VOIs at each time point to obtain a time versus radioactivity curve (TAC). […]

[4] = system: DU145 prostate adenocarcinoma tumours; test: PET imaging of DU145 tumour-bearing mice; assay type: in vivo; details: for Tumour visibility by PET: DU145, 50-60 min static scans; for Tumour to whole body normalized uptake: 50-60 min static scans
Experimental: [^18F]FDMP imaging scans were carried out on a GENISYS^4 small animal PET scanner (Sofie Biosciences), following a bolus i.v. injection of ˜1.85 MBq of the radiotracer into tumour-bearing mice. Static scans were acquired for 10 min and images were reconstructed using maximum-likelihood expectation maximization. In a different cohort of mice, dynamic PET imaging was performed on a Siemens Inveon PET module, (Siemens Medical Solutions USA) as described in supplementary materials. Dynamic PET imaging was performed for the [^18F]FDMP and [^18F]FDG comparison study in EMT6 tumour-bearing mice. Static scans on the GENISYS^4 were used for all other experiments. Siemens Inveon Research Workplace software was used for visualization of radiotracer uptake in the tumour and to define the three-dimensional volumes of interest (VOI). Tumour radioactivity were normalized to that of the whole body to obtain the normalized uptake value (NUV) to permit comparison of data obtained using the two scanners.

[5] = system: Turpentine-induced inflammatory tissue; test: Aseptic inflammation model biodistribution; assay type: in vivo; details: for Inflammation-to-muscle ratio: in vivo; for Accumulation in chemically-induced inflammatory tissues: turpentine-treated muscle
Experimental: as §1, §2

[6] = system: BT474 cells; test: Metabolism experiments in cells (LC-MS); assay type: cell-based, human
Experimental: (§3) EMT6 murine breast cancer cells (LGC Standards) were grown in Waymouth's medium (Life Technologies), with U87 human glioma cells (LGC Standards) grown in DMEM medium (Life Technologies). DU145 (kind donation from Dr. Almut Schulze, CRUK London Research Institute) and BT474 (LGC Standards) were grown in RPMI (Life Technologies). All media were supplemented with 2.5 mL penicillin/streptomycin (10,000 IU·mL^−1/10,000 […]) and 2 mM L-glutamine (Life Technologies). Waymouth's medium contained 15% fetal calf serum (FCS), with 10% FCS added to DMEM and RPMI. All cells were propagated at 37° C. in a humidified atmosphere containing 5% CO2.
BT474 cells were seeded in 12-well plates at 2×10^5 cells per well. For measurement of FDMP uptake, the media was replaced with media supplemented with 500 μM FDMP and incubated for the indicated times. All media samples were harvested at the same time and immediately diluted into ice-cold extraction solution of methanol, acetonitrile, and water (5:3:2) (All chemicals were purchased from Fisher Scientific and were LC-MS grade). Cell numbers were assumed to be identical. The amount of extraction solution added to each well was determined by cell counts obtained from a counting plate run in parallel (1 mL/2×10^6 cells). Extracts were vortexed for 10 min at 4° C. and then centrifuged at 16,500 g at 4° C. for 15 min. Supernatants were removed and analyzed by LC-MS (ZIC-pHelic HPLC columns and Exactive Plus Orbitrap MS (ThermoScientific). Data was analyzed using Xcalibur and LCQuan software (ThermoScientific). FDMP and FAC standards were run in isolation for quantification.

[7] = system: EMT6 murine breast cancer cells; test: [18F]FDMP uptake in cells (gamma counting); assay type: cell-based
Experimental: as §3
EMT6 cells (2×10^5) were plated into 6-well plates overnight prior to analysis. On the day of the experiment fresh growth medium containing 0.74 MBq [^18F]FDMP were added to individual wells (1 mL/well). Cell uptake was measured over 60 min post radiotracer addition. Plates were placed on ice, washed 3 times with ice-cold PBS and lysed in RIPA buffer (Thermo Fisher Scientific Inc.; 1 mL, 10 min). Cell lysates were transferred to counting tubes and decay-corrected radioactivity was determined on a gamma counter (Cobra II Auto-Gamma counter, Packard Biosciences Co.). Aliquots were snap-frozen and used for protein determination following radioactive decay using a BCA 96-well plate assay (Thermo Fisher Scientific Inc.). In addition, 10 μL standards from a 0.74 MBq/mL stock solution were counted to quantitate % radiotracer uptake. For carnitine treatment, cells were incubated with 10 μM L-carnitine for the duration of the uptake time course.

[8] = system: EMT6 murine breast adenocarcinoma xenografts; test: Biodistribution time course in EMT6 tumour-bearing BALB/c mice; assay type: in vivo
Experimental: as §1, §2

[9] = system: BT474 tumours; test: Biodistribution in BT474 tumour-bearing nude mice; assay type: in vivo, BALB/c nude mice; details: 60 min post injection
Experimental: as §1, with “Inflammation was performed in an aseptic inflammation model as previously described.^23” left out
[^18F]FDMP (˜3.7 MBq) was injected via the tail vein of anaesthetized EMT6 tumour-bearing BALB/c mice. […] Tissue radioactivity was determined on a gamma counter (Cobra II Auto-Gamma counter, Packard Biosciences Co.) and decay corrected. 10 μL standards from a 1:100 dilution of the stock activity were also counted for data normalization. […] Data were expressed as percent injected dose per gram of tissue (% ID/g).

[10] = In vivo radiotracer stability and metabolism (radio-HPLC of tissue extracts); parameters: species or system BALB/c non-tumour-bearing mice
Experimental: Radiolabeled metabolites from plasma and tissues were quantified using an adapted method.^24 BALB/c non-tumour-bearing mice under general anesthesia (2.5% isofluorane; non-recovery anesthesia) were administered a bolus i.v. injection of [^18F]FDMP (˜7.4 MBq), and sacrificed by exsanguination via cardiac puncture 30 min post radiotracer injection. Heart, urine and liver samples were immediately snap-frozen in liquid nitrogen. Aliquots of heparinized blood were rapidly centrifuged (14000 g, 5 min, 4° C.) to obtain plasma. Plasma samples were subsequently snap-frozen in liquid nitrogen and kept on dry ice prior to analysis. For analysis, samples were thawed and kept at 4° C. immediately before use. To ice cold plasma and urine (200 μL) was added ice-cold methanol (600 μL) and the resulting suspension centrifuged (14000 g; 4° C.; 3 min). 300 μL of the resulting supernatant was added to 1 mL ice cold mobile phase. […] Samples were analyzed on an Agilent 1100 series HPLC system (Agilent Technologies, Santa Clara, Calif., USA), using an isocratic method of 10% MeOH in an ion pair buffer prepared as follows and a μBondapak C18 semi preparative HPLC column (Waters, Milford, Mass., USA; […]). […]

[11] = PET/CT imaging in healthy BALB/c mice; assay type: in vivo
[12] = system: orthotopic U87 brain tumour; test: PET imaging in orthotopic U87 brain tumour model; assay type: in vivo; details: 15-30 min and 45-60 min post radiotracer injection
Experimental: FIG. 14. [^18F]FDMP and [^18F]FDG uptake in an orthotopic U87 brain tumour model. PET images were acquired 15-30 min and 45-60 min post radiotracer injection 6 weeks after intracranial injection of U87 glioma cells. White arrows indicate the tumour.
[^18F]FDMP and [^18F]FDG uptake in an orthotopic U87 brain tumour model was analysed (FIG. 14). […] The background is very low, so good staining is achieved.

Compound: CC([18F])C(=O)O (centres unmarked) [[^18F]FPA, [^18F]2-fluoropropionic acid]
Tumour-to-brain ratio ([1]; 60 minutes post-injection): 1.27
Tumour to blood ratio ([1]; Table 1 in reference 28): 1.03

Tumour/brain ratio [2]: 1.3
Tumour uptake [2]: 11.0±1.1 % ID/g
Tumour to whole body normalized uptake [3]: 1.02±0.16 NUV
Tumour to whole body normalized uptake ([4]; DU145 prostate tumours): 0.47±0.09 NUV
Inflammation-to-muscle ratio [5]: 2.66
Accumulation in chemically-induced inflammatory tissues [5]: 5.86±0.68 % ID/g
Compound: [^18F]2-fluoro-2-deoxyglucose [[^18F]FDG, reference compound]
Tumour visibility by PET [4]: not visible above background

Compound: CC(C)(CF)C(=O)O [[^19F]FDMP]
Uptake by BT474 cells detected by mass spectrometry ([6]; 500 μM in medium): rapidly taken up
Intracellular metabolites observed by LC-MS ([6]; 500 μM in medium, BT474 cells): no other metabolites were observed

Compound: CC(C)(C[18F])C(=O)O [[^18F]FDMP, [^18F]3-fluoro-2,2-dimethylpropanoic acid]
Uptake into EMT6 tumour cells ([7]; 30 min of incubation): 1.40±0.10 % radioactivity/mg protein
Uptake into EMT6 tumour cells ([7]; 60 min post radiotracer addition (plateau)): 1.47±0.04 % radioactivity/mg protein
Uptake increase compared to control cells ([7]; incubation with 10 μM L-carnitine): 44%
Bone uptake ([8]; 2, 15, 30 and 60 minutes after administration): low bone uptake
Tumour to blood ratio ([8]; EMT6, after 60 minutes): up to 2.32
Tumour-associated radioactivity ([8]; EMT6 tumour, 30 min post injection): 9.3±1.0 % ID/g
Tumour-associated radioactivity ([8]; EMT6 tumour, 120 min post radiotracer injection): 9.8±2.0 % ID/g
Tumour-associated radioactivity ([8]; EMT6 tumour, 180 min): 6.3±0.7 % ID/g
Reduction of tumour-associated radioactivity ([8]; EMT6 tumour, by 180 min): 36%
Tumour radioactivity ([8]; EMT6 tumours, 60 min post injection): 9.1±0.5 % ID/g
Blood-brain barrier passage ([8]; gamma counting and dynamic PET): able to cross the blood-brain barrier; also recorded: passes the blood brain barrier
Tumour radioactivity [9]: 7.6±1.2 % ID/g
Tumour/brain ratio [2]: 2.5
Tumour uptake [2]: 9.35±1.0 % ID/g
Uptake in the normal brain ([2]; compared with [18F]FDG): significantly lower than [^18F]FDG
Stability in plasma, liver and heart by radioHPLC ([10]; 30 min post injection): no degradation; also recorded: only peaks of the parent compound detectable
Parent peak fraction in urine ([10]; urine, 30 min): 61.8±6.6 % radioactivity
Tumour to whole body normalized uptake [3]: 1.15±0.13 NUV
Tumour visibility by PET [4]: clearly discernable
Tumour uptake higher than [18F]FDG ([4]; DU145 prostate tumours): 54%
Tumour to whole body normalized uptake ([4]; DU145 prostate tumours): 0.73±0.07 NUV
Inflammation-to-muscle ratio [5]: 2.36
Accumulation in chemically-induced inflammatory tissues [5]: 6.53±1.13 % ID/g
Defluorination of the tracer (retention in bones) [11]: no defluorination
Tumour staining in PET images [12]: good staining of the U87 tumour was visible

Compound: O=C(O)CF [[^19F]FAC, [^19F]fluroacetate, reference compound]
Intracellular metabolites observed by LC-MS ([6]; 500 μM in medium, BT474 cells): only the parent compound and [^19F]fluorocitrate were observed
Effect on intracellular metabolite pools (citrate, cis-aconitate, alpha-ketoglutarate) ([6]; BT474 cells, LC-MS): significant increase in citrate and cis-aconitate, together with significant decrease in alpha-ketoglutarate
